Laboratory results reported in PubChem BioAssay AID1259407 (Chemical Carcinogenesis Research Information System (CCRIS), 2018).
The source made the active and inactive calls. How the calls were made is not given here.

System: CCRIS mutagenicity, Ames/micronucleus/aberration tests
Experiment: CCRIS mutagenicity studies
[1] = Test System: AMES SALMONELLA TYPHIMURIUM, Strain/Indicator: TA98, Metabolic Activation: NONE, Method: PREINCUBATION
[2] = Test System: AMES SALMONELLA TYPHIMURIUM, Strain/Indicator: TA100, Metabolic Activation: NONE, Method: PREINCUBATION
[3] = Test System: AMES SALMONELLA TYPHIMURIUM, Strain/Indicator: TA1535, Metabolic Activation: NONE, Method: PREINCUBATION
[4] = Test System: AMES SALMONELLA TYPHIMURIUM, Strain/Indicator: TA1537, Metabolic Activation: NONE, Method: PREINCUBATION
[5] = Test System: AMES SALMONELLA TYPHIMURIUM, Strain/Indicator: TA1535, Metabolic Activation: NONE, Method: STANDARD PLATE

Structure (SMILES): CNC(=O)C[C@@H](N)C(=O)N[C@@H](C(=O)N[C@@H]1C(=O)N2[C@@H]1SC(C)(C)[C@@H]2C(=O)O)c1ccc(O)cc1
- mutagenic call [1]: inactive; negative
- mutagenic call (Test System: AMES SALMONELLA TYPHIMURIUM, Strain/Indicator: TA98, Metabolic Activation: RAT, LIVER, S-9, PHENOBARBITAL AND BENZOFLAVONE, Method: PREINCUBATION): inactive; negative
- mutagenic call [2]: inactive; negative
- mutagenic call (Test System: AMES SALMONELLA TYPHIMURIUM, Strain/Indicator: TA100, Metabolic Activation: RAT, LIVER, S-9, PHENOBARBITAL AND BENZOFLAVONE, Method: PREINCUBATION): inactive; negative
- mutagenic call [3]: inactive; negative
- mutagenic call (Test System: AMES SALMONELLA TYPHIMURIUM, Strain/Indicator: TA1535, Metabolic Activation: RAT, LIVER, S-9, PHENOBARBITAL AND 5,6 BENZOFLAVONE, Method: PREINCUBATION): inactive; negative
- mutagenic call [4]: inactive; negative
- mutagenic call (Test System: AMES SALMONELLA TYPHIMURIUM, Strain/Indicator: TA1537, Metabolic Activation: RAT, LIVER, S-9, PHENOBARBITAL AND 5,6 BENZOFLAVONE, Method: PREINCUBATION): inactive; negative
- mutagenic call (Test System: AMES SALMONELLA TYPHIMURIUM, Strain/Indicator: TA1538, Metabolic Activation: NONE, Method: PREINCUBATION): inactive; negative
- mutagenic call (Test System: AMES SALMONELLA TYPHIMURIUM, Strain/Indicator: TA1538, Metabolic Activation: RAT, LIVER, S-9, PHENOBARBITAL AND 5,6 BENZOFLAVONE, Method: PREINCUBATION): inactive; negative
- mutagenic call (Test System: E. COLI, Strain/Indicator: WP2 UVRA, Metabolic Activation: NONE, Method: PREINCUBATION): inactive; negative
- mutagenic call (Test System: E. COLI, Strain/Indicator: WP2 UVRA, Metabolic Activation: RAT, LIVER, S-9, PHENOBARBITAL AND 5,6 BENZOFLAVONE, Method: PREINCUBATION): inactive; negative

Structure (SMILES): [N-]=[N+]=CC(=O)NCC(N)=O
- mutagenic call [5]: active; positive
- mutagenic call (Test System: UDS RODENT CELLS, Strain/Indicator: THY INCORP (NON-S-PHASE), Metabolic Activation: NONE, Method: AUTORADIOGRAPHY): active; positive

Structure (SMILES): Cc1cc2ccccc2c2cc([N+](=O)[O-])c3ccccc3c12
- mutagenic call [1]: active; positive
- mutagenic call (Test System: AMES SALMONELLA TYPHIMURIUM, Strain/Indicator: TA98, Metabolic Activation: RAT, LIVER, S-9, Method: PREINCUBATION): active; positive
- mutagenic call [2]: active; positive
- mutagenic call (Test System: AMES SALMONELLA TYPHIMURIUM, Strain/Indicator: TA100, Metabolic Activation: RAT, LIVER, S-9, Method: PREINCUBATION): active; positive

Structure (SMILES): CCCCOC(=O)c1ccccc1C(=O)OCc1ccccc1
- mutagenic call (End Point: IN VITRO CHROMOSOMAL ABERRATIONS, Test System: CHINESE HAMSTER OVARY CELLS, Metabolic Activation: NONE): inactive; negative
- mutagenic call (End Point: IN VITRO CHROMOSOMAL ABERRATIONS, Test System: CHINESE HAMSTER OVARY CELLS, Metabolic Activation: RAT, LIVER, S-9, AROCLOR 1254): inactive; negative
- mutagenic call (Test System: AMES SALMONELLA TYPHIMURIUM, Strain/Indicator: TA98, Metabolic Activation: HAMSTER, LIVER, S-9, AROCLOR 1254 (10%), Method: PREINCUBATION): inactive; negative
- mutagenic call [1]: inactive; negative
- mutagenic call (Test System: AMES SALMONELLA TYPHIMURIUM, Strain/Indicator: TA98, Metabolic Activation: RAT, LIVER, S-9, AROCLOR 1254 (10%), Method: PREINCUBATION): inactive; negative
- mutagenic call (Test System: AMES SALMONELLA TYPHIMURIUM, Strain/Indicator: TA100, Metabolic Activation: HAMSTER, LIVER, S-9, AROCLOR 1254 (10%), Method: PREINCUBATION): inactive; negative
- mutagenic call [2]: inactive; negative
- mutagenic call (Test System: AMES SALMONELLA TYPHIMURIUM, Strain/Indicator: TA100, Metabolic Activation: RAT, LIVER, S-9, AROCLOR 1254 (10%), Method: PREINCUBATION): inactive; negative
- mutagenic call (Test System: AMES SALMONELLA TYPHIMURIUM, Strain/Indicator: TA1535, Metabolic Activation: HAMSTER, LIVER, S-9, AROCLOR 1254 (10%), Method: PREINCUBATION): inactive; negative
- mutagenic call [3]: inactive; negative
- mutagenic call (Test System: AMES SALMONELLA TYPHIMURIUM, Strain/Indicator: TA1535, Metabolic Activation: RAT, LIVER, S-9, AROCLOR 1254 (10%), Method: PREINCUBATION): inactive; negative
- mutagenic call (Test System: AMES SALMONELLA TYPHIMURIUM, Strain/Indicator: TA1537, Metabolic Activation: HAMSTER, LIVER, S-9, AROCLOR 1254 (10%), Method: PREINCUBATION): inactive; negative
- mutagenic call [4]: inactive; negative
- mutagenic call (Test System: AMES SALMONELLA TYPHIMURIUM, Strain/Indicator: TA1537, Metabolic Activation: RAT, LIVER, S-9, AROCLOR 1254 (10%), Method: PREINCUBATION): inactive; negative
- mutagenic call (Test System: MOUSE LYMPHOMA, Strain/Indicator: L5178Y (TK+/TK-), Metabolic Activation: NONE, Method: SUSPENSION/PLATE): inactive; negative
- mutagenic call (Test System: MOUSE LYMPHOMA, Strain/Indicator: L5178Y (TK+/TK-), Metabolic Activation: RAT LIVER S-9, Method: SUSPENSION/PLATE): active; positive
- mutagenic call (Test System: MOUSE LYMPHOMA, Strain/Indicator: L5178Y (TK+/TK-), Metabolic Activation: RAT, LIVER, S-9, AROCLOR 1254, Method: SUSPENSION/PLATE): inactive; negative

Structure (SMILES): CC(=O)O[C@@]1(C)C(=O)OC/C2=C/CN(C)CC[C@@H](OC(=O)[C@]3(C[C@H]1C)O[C@@H]3C)C2=O
- mutagenic call (Test System: UDS RAT HEPATOCYTES, Strain/Indicator: THY INCORP, Metabolic Activation: NONE, Method: AUTORADIOGRAPHY): active; positive

Structure (SMILES): COC(=O)c1ccc(CN(C)N=O)cc1
- mutagenic call (Test System: AMES SALMONELLA TYPHIMURIUM, Strain/Indicator: TA1535, Metabolic Activation: HAMSTER, LIVER, S-9, AROCLOR 1254, Method: STANDARD PLATE): inactive; negative
- mutagenic call [5]: inactive; negative
